According to PubChem BioAssay (NCI):
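Each compound was tested at five concentrations against cells in 96-well plates for 48 hours. Abbreviation: GI50, concentration required for 50% inhibition of growth. TGI: total growth inhibition.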

How the values were obtained:
Assay in all cases: NCI-60 cell line screen, 48 h
[1] = system: U251 CNS
[2] = system: UACC-257 melanoma
[3] = system: SNB-19 CNS
[4] = system: RXF 393 renal
[5] = system: OVCAR-3 ovarian
[6] = system: ACHN renal
[7] = system: SN12C renal
[8] = system: M14 melanoma
[9] = system: MCF7 breast
[10] = system: T-47D breast

In the case of `O=C(O)c1cc2c(cn1)[nH]c1ccccc12`, the TGI [1] was > 100 µM, the TGI [2] was > 100 µM and the TGI [3] was > 100 µM. For the same compound, the TGI [4] was > 100 µM, the TGI [5] was > 100 µM and the TGI [6] was > 100 µM. The TGI [7] was > 100 µM and the TGI [8] was > 100 µM.
In the case of `CC(=O)OCC1OC(n2c(=O)n(-c3ccccc3)c(=O)c3ccccc32)C(OC(C)=O)C(OC(C)=O)C1OC(C)=O` (stereo unspecified), the TGI [1] was > 100 µM, the TGI [2] was > 100 µM and the TGI [3] was > 100 µM. For the same compound, the TGI [4] was > 100 µM, the TGI [5] was > 100 µM and the TGI [6] was > 100 µM. The TGI [7] was > 100 µM and the TGI [8] was > 100 µM.
`O=C(Oc1ccc(CCl)cc1)c1ccccc1` showed a GI50 [9] of 0.179 µM, a TGI [9] of 0.525 µM and a GI50 [1] of 0.138 µM. The TGI [1] was 0.268 µM, the GI50 [2] was 0.196 µM and the TGI [2] was 0.503 µM. It also gave a GI50 [3] of 0.187 µM, a TGI [3] of 0.495 µM and a GI50 [4] of 0.174 µM. The TGI [4] was 0.332 µM, the GI50 [5] was 0.164 µM and the TGI [5] was 0.304 µM. The GI50 [6] was 0.119 µM, the TGI [6] was 0.246 µM and the GI50 [8] was 0.125 µM. The TGI [8] was 0.348 µM.
`CCOC(=O)C1C(=O)c2ccccc2CN1Cc1ccccc1` (stereo unspecified) was tested, and the TGI [1] was > 100 µM, the TGI [2] was > 100 µM and the TGI [3] was > 100 µM. For the same compound, the TGI [5] was > 100 µM, the TGI [6] was > 100 µM and the TGI [7] was > 100 µM. The TGI [8] was > 100 µM.
For `CN(C)CCCNC(=O)c1cc(NC(=O)c2cc(NC(=O)c3cc(NC(=O)CCc4c[nH]c5ccccc45)cn3C)cn2C)cn1C`, the GI50 [9] was 56.8 µM, the TGI [9] was > 100 µM and the GI50 [1] was > 100 µM. For the same compound, the TGI [1] was > 100 µM, the GI50 [2] was > 100 µM and the TGI [2] was > 100 µM. The GI50 [3] was > 100 µM, the TGI [3] was > 100 µM and the GI50 [4] was > 100 µM. For the same compound, the TGI [4] was > 100 µM, the GI50 [5] was > 100 µM and the TGI [5] was > 100 µM. For the same compound, the GI50 [6] was > 100 µM, the TGI [6] was > 100 µM and the GI50 [7] was > 100 µM. The TGI [7] was > 100 µM, the GI50 [8] was > 100 µM and the TGI [8] was > 100 µM.
In the case of `Cc1nc2cccc(NCc3ccc(C(=O)NO)cc3)c2c(=O)n1-c1ccccc1`, the GI50 [9] was 2.89 µM, the TGI [9] was 38.9 µM and the GI50 [1] was 1.56 µM. It also gave a TGI [1] of 3.04 µM, a GI50 [2] of 2.11 µM and a TGI [2] of 4.98 µM. The GI50 [3] was 1.92 µM, the TGI [3] was 4.56 µM and the GI50 [4] was 1.41 µM. The TGI [4] was 2.79 µM, the GI50 [5] was 2.16 µM and the TGI [5] was 4.9 µM. It also gave a GI50 [6] of 1.62 µM, a TGI [6] of 3.33 µM and a GI50 [7] of 2.14 µM. For the same compound, the TGI [7] was 5.38 µM.
With `O=C1C(=O)N(c2ccc(Cl)c(Cl)c2)C(=O)C(=O)C1c1nc2ccccc2o1` the TGI [1] was 85.6 µM, the TGI [2] was > 100 µM and the TGI [3] was > 100 µM. The TGI [5] was > 100 µM, the TGI [6] was > 100 µM and the TGI [7] was > 100 µM. The TGI [8] was > 100 µM.
For `COc1ccc2ccc([Se]c3ccc4ccc(OC)cc4c3)cc2c1`, the TGI [1] was 99.2 µM, the TGI [2] was > 100 µM and the TGI [3] was 68.8 µM. The TGI [4] was > 100 µM, the TGI [5] was > 100 µM and the TGI [6] was > 100 µM. For the same compound, the TGI [7] was > 100 µM and the TGI [8] was > 100 µM.
With `Cc1c2cc[nH]c(=O)c2cc2c(=O)c3cnccc3[nH]c12` the TGI [1] was > 100 µM, the TGI [2] was > 100 µM and the TGI [3] was > 100 µM. For the same compound, the TGI [4] was > 100 µM, the TGI [5] was > 100 µM and the TGI [6] was > 100 µM. The TGI [7] was > 100 µM and the TGI [8] was > 100 µM.
With `CC(C(=O)Oc1ccc2ccccc2c1-c1c(O)ccc2ccccc12)c1ccccc1` (stereo unspecified) the TGI [1] was 28.7 µM, the TGI [2] was 27.6 µM and the TGI [3] was 28.4 µM. The TGI [4] was 22.9 µM, the TGI [5] was 26.6 µM and the TGI [6] was 26.6 µM. The TGI [7] was 29.7 µM and the TGI [8] was 27.7 µM.
For `CC1(C)OCC(CO)(Nc2nc(N3CC3)nc(N3CC3)n2)CO1`, the TGI [1] was 31.7 µM, the TGI [10] was 45 µM and the TGI [2] was 45.1 µM. The TGI [3] was 62.1 µM, the TGI [4] was 28.6 µM and the TGI [5] was 49.4 µM. For the same compound, the TGI [6] was 13.9 µM, the TGI [7] was 58.6 µM and the TGI [8] was 25.5 µM.
In the case of `COC(=O)C(Nc1ccc(OC)cc1)c1ccccc1` (stereo unspecified), the TGI [9] was > 100 µM, the TGI [10] was > 100 µM and the TGI [2] was > 100 µM. The TGI [3] was > 100 µM, the TGI [5] was > 100 µM and the TGI [6] was > 100 µM. The TGI [7] was > 100 µM and the TGI [8] was > 100 µM.
In the case of `CCOC(=O)C(C)c1cc(C2(C)OCCO2)c(C)o1` (stereo unspecified), the TGI [1] was > 100 µM, the TGI [3] was > 100 µM and the TGI [4] was > 100 µM. For the same compound, the TGI [5] was > 100 µM, the TGI [6] was > 100 µM and the TGI [7] was > 100 µM. For the same compound, the TGI [8] was > 100 µM.
In the case of `COc1ccc(/C=C\c2cc(OC)c(OC)c(OC)c2)cc1OCC(=O)Nc1nc2ccc(C(F)(F)F)cc2s1`, the GI50 [9] was 3.16 µM, the TGI [9] was 65.1 µM and the GI50 [1] was 3.67 µM. The TGI [1] was > 100 µM, the GI50 [10] was 4.79 µM and the TGI [10] was > 100 µM. For the same compound, the GI50 [2] was 40 µM, the TGI [2] was > 100 µM and the GI50 [3] was 5.03 µM. The TGI [3] was > 100 µM, the GI50 [5] was 2.11 µM and the TGI [5] was 4.51 µM. The GI50 [6] was 4.83 µM, the TGI [6] was > 100 µM and the GI50 [7] was 4.43 µM. The TGI [7] was > 100 µM, the GI50 [8] was 3.59 µM and the TGI [8] was > 100 µM.
With `COC(=O)c1nc(NC#N)[nH]c(=O)c1C` the TGI [1] was > 100 µM, the TGI [2] was > 100 µM and the TGI [3] was > 100 µM. For the same compound, the TGI [4] was > 100 µM, the TGI [5] was > 100 µM and the TGI [6] was > 100 µM. For the same compound, the TGI [7] was > 100 µM and the TGI [8] was > 100 µM.
With `O=C1OC2(c3ccccc3Oc3ccccc32)c2ccccc21` the TGI [1] was > 100 µM, the TGI [2] was > 100 µM and the TGI [3] was > 100 µM. The TGI [5] was > 100 µM, the TGI [6] was > 100 µM and the TGI [7] was > 100 µM. For the same compound, the TGI [8] was > 100 µM.
